The subject of the assay is CEM cells HIV-1 protection, formazan growth assay. Nature of the assay: NCI AIDS Antiviral Assay. Particulars: for IC50: measured here: growth of uninfected CEM cells. The essentials:
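Category rules: moderately active means at least 50% protection on retest, and confirmed active means 100% protection reproducibly. The underlying data came from a formazan growth assay in HIV-1-infected CEM cells.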

For orientation: EC50 means the concentration needed to bring the measured effect to its halfway point. By IC50 is commonly meant the concentration that gives 50% inhibition.

Calls of active or inactive are those of the source.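 Rule for the calls: active = compounds giving half or more protection of infected cells from virus-caused growth loss, again on retest; inactive = the rest.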

For the compound `Cc1cc2c(C)n(Cc3ccc(Cl)cc3Cl)nc2c(C(=O)O)c1C`, the EC50 is over 501 µM and the IC50 was 83.2 µM. Take `O=C1C(CN2CCCC2)CCCC1CN1CCCC1` (stereo not given): the outcome was inactive. Take `COc1nn(C)c(=O)c2cccnc12`: the EC50 is over 1100 µM and the half-inhibitory concentration (IC50) turned out to be 676 µM. Consider `Cn1c(=O)[nH]c(=O)c2[nH]c(=O)c(=O)n(C)c21`, for which the EC50 was over 200 µM and the IC50 is over 200 µM.

Take `C=C1CCC[C@@H]2[C@@](C)(CC3=CC(=O)C=CC3=O)C(C)CC[C@]12C` (stereo not given in full): the EC50 is over 60.3 µM and the IC50 amounted to 0.427 µM.

Take `O=C(O)Cc1cc(=O)oc2cc(O)ccc12`: the EC50 was over 1120 µM and the IC50 was over 1120 µM.

Turning to `CCCCN(CCCC)C(=O)C(=O)C(C(=O)c1ccc(OC)cc1)c1ccc(OC)cc1` (stereo not given), the EC50 is over 11.7 µM and the IC50 is over 11.7 µM. As for `CN(C)CCN(C)CC1COC(C)(C)O1` (stereo not given), the outcome was inactive.

On to `CC1=CC(=O)/C(=C/N2C(=S)NC(=O)/C2=C/c2cccc([N+](=O)[O-])c2)C(=O)O1`, for which the EC50 was over 200 µM and the 50% inhibitory concentration (IC50) is 138 µM. Take `O/N=C\c1c2c(cc3c1CCC3)CCC2`: the EC50 was over 200 µM and the IC50 is over 200 µM. With `CC(C)CC1[C@@H](OCc2ccccc2)COS(=O)(=O)N1Cc1ccccc1` (stereo not given in full), the EC50 was over 200 µM and the IC50 was 77.6 µM. As to `C/C=C/CC(C)[C@@H](O)[C@H](NC)C(=O)O` (stereo not given in full), the result was inactive. Turning to `O=C(c1ccccc1)N(CCCCNC(=O)C(F)(F)F)CCCNC(=O)C(F)(F)F`, the EC50 was over 200 µM and the IC50 is over 200 µM.

Take `O=S(=O)(N=S(c1ccccc1)c1ccccc1)c1ccccc1`: the EC50 is over 145 µM and the IC50 was over 145 µM.

As for `O=C1/C(=C/c2ccc(O)cc2)CC/C1=C\c1ccc(O)cc1`, the EC50 is over 200 µM and the IC50 amounted to 31.6 µM.

For `O=C(O)C12C3C4C1C1C2C3C41I` (stereo not given), the EC50 is over 479 µM and the IC50 is over 479 µM. As for `COc1cc2nncc(SCc3ccccc3Cl)c2cc1OC`, the EC50 is 1.45 µM and the IC50 amounted to 51.3 µM. On to `O=S(=O)(O)c1cc(NC(=S)c2ccc3cccnc3c2O)ccc1/C=C/c1ccc(NC(=S)c2ccc3cccnc3c2O)cc1S(=O)(=O)O`, for which the EC50 is 13.8 µM and the IC50 turned out to be 72.4 µM. As to `Cn1c(=O)c2nc(NCCO)cnc2n(C)c1=O`, the EC50 was over 200 µM and the IC50 is 85.1 µM.

Consider `Nc1cc(=O)[nH]c(N)n1`, for which the result was inactive. As for `CC(NC(=O)C(N)CC(=O)O)NC(=O)N1CCCC1` (stereo not given), the EC50 was over 200 µM and the IC50 was over 200 µM.

Turning to `CCN(CC)P1(=O)C=C(C)C2C1C1C=C(C)C2P1(=O)N(CC)CC` (stereo not given), the outcome was inactive.

With `COc1cc(CCCC(O)COc2cccc3c2C2(O)CCCCCC32)cc(OC)c1` (stereo not given), the EC50 is over 200 µM and the IC50 stood at 12.6 µM. Consider `N=c1oc2ccc3ccccc3c2cc1-c1nc2ccccc2c(=O)[nH]1`, for which the EC50 was over 50.1 µM and the IC50 amounted to 7.24 µM. The like results for `O=C1C(=Cc2ccc(Cl)cc2)C(=O)c2ccccc21` were, in that order, over 17.4 µM and over 17.4 µM. As for `Cc1cc([C@H](C#N)c2nc3ccccc3[nH]2)nc(Cl)n1`, the EC50 is over 200 µM and the IC50 was 22.4 µM. Turning to `CNC(=O)O/N=C\C=N\OC(=O)NC`, the result was inactive. With `c1cncc(C2N3CCCCC3[C@@H]3c4[nH]c5ccccc5c4CCN23)c1` (stereo not given in full), the EC50 is over 97.7 µM and the IC50 was over 97.7 µM. Regarding `COC(=O)C(COC(C)=O)NC(=O)/C=C/c1ccc(O)c(OC(C)=O)c1` (stereo not given), the EC50 is over 200 µM and the IC50 amounted to 10 µM. As for `c1ccc2c3c(ccc2c1)CSCc1ccc2ccccc2c1-3`, the EC50 was over 200 µM. As for `CCCCCCC1C=CCCN1` (stereo not given), the outcome was inactive. For the compound `COC1/C=C\OC2(C)Oc3c(C)c(O)c4c(c3C2=O)C(=O)C=C(NC(=O)/C(C)=C\C=C/C(C)C(O)C(C)C(O)C(C)C(OC(C)=O)C1C)C4=O` (stereo not given), the EC50 is over 200 µM and the IC50 is 2.69 µM. Turning to `O=C(CC(O)(C(F)(F)F)C(F)(F)F)C(c1ccccc1)C(O)(C(F)(F)F)C(F)(F)F` (stereo not given), the outcome was inactive. On to `NCCN=C(Nc1ccccc1)Nc1ccccc1`, for which the EC50 was over 200 µM and the IC50 was determined as 29.5 µM. For `CC(=O)/C=C/c1ccc(C)cc1`, the EC50 is over 63.1 µM and the IC50 was over 63.1 µM.

For `COC1OC(Cn2c(C)nc(Br)c2Br)C(O)C(O)C1O` (stereo not given), the EC50 is 33.9 µM and the IC50 is over 200 µM. On to `Cc1c(C(=O)Nc2ccc(Cl)cc2)nc(N)nc1-c1cccc(Cl)c1`, for which the EC50 is over 174 µM and the IC50 was over 174 µM.

On to `COc1ccc(C2S/C(=C\c3cccc([N+](=O)[O-])c3)C(=O)N2NC(=O)Cc2ccccc2)cc1` (stereo not given), for which the EC50 is over 39.8 µM and the IC50 was over 39.8 µM.

As to `O=C(Nc1ccc([N+](=O)[O-])cc1[N+](=O)[O-])C(=O)C(C(=O)c1ccc2ccccc2c1)C1OC(=O)c2ccccc21` (stereo not given), the EC50 was over 66.1 µM and the IC50 turned out to be 19.5 µM. Turning to `CN1C(c2ccccc2)=C(C#N)C(=O)CC(c2cccs2)N1C` (stereo not given), the EC50 is over 200 µM and the IC50 stood at 191 µM. In the case of `Cc1ccc(C)n1-c1ccccc1C1C=Cn2c(=O)nnc3c(OC(C)C)c(OC(C)C)c(O)c1c32` (stereo not given), the EC50 was over 200 µM and the IC50 was 25.7 µM. On to `COc1ccc2cc1Oc1ccc(cc1)CC1c3cc(c(OC)cc3CCN1C)Oc1c3c(cc4c1C(C2)N(C)CC4)OCO3` (stereo not given), for which the result was inactive. As for `Cc1ccc(S(=O)(=O)NC(=O)NCCSSCCNC(=O)NS(=O)(=O)c2ccc(C)cc2)cc1`, the EC50 is over 200 µM and the IC50 is over 200 µM. Turning to `C=CCn1c(-c2ccc(-c3cs/c(=N\N=O)n3CC=C)cc2)cs/c1=N\N=O`, the EC50 was over 100 µM and the IC50 was over 100 µM. Consider `COc1ccc(/C(=N/O)c2ccccc2-c2nc3ccccc3c(=O)n2Nc2ccc([N+](=O)[O-])cc2[N+](=O)[O-])cc1C`, for which the EC50 was over 200 µM and the half-maximal inhibitory concentration (IC50) was 43.7 µM. Take `C#CC1(O)CCC2C3CCC4=Cc5oncc5CC4(C)C3CCC21C` (stereo not given): the EC50 is over 200 µM and the IC50 was 39.8 µM. On to `CC(O)CN1c2ccccc2Sc2ccc(Cl)cc21` (stereo not given), for which the EC50 is over 200 µM and the IC50 turned out to be 42.7 µM.

`CC(=O)NC1C(O)OC(CO)C(OC2OC(CO)C(O)C(O)C2NC(=O)NCCCCCCNC(=O)n2cc(F)c(=O)[nH]c2=O)C1O` (stereo not given): the outcome was inactive. `O=C(N/C(=C\c1ccccc1[N+](=O)[O-])c1nc2ccccc2[nH]1)c1ccccc1`: the EC50 is over 49 µM and the IC50 is over 49 µM.

`N/N=C1/C(=O)N(c2ccc(Cl)cc2)C(=O)C(=O)C1c1nc2ccccc2s1` (stereo not given): the EC50 is over 18.2 µM and the IC50 is over 18.2 µM. For `COc1ccc(N2C(=O)/C(=C/c3ccc(N(CCC#N)CCC#N)cc3C)N=C2/C=C\c2ccccc2)cc1`, the EC50 is over 14.1 µM and the IC50 was over 14.1 µM. On to `Cc1cc2c(O)c(c1)COCc1cc(C)cc(c1O)COCc1cc(C)cc(c1O)COC2`, for which the EC50 was over 200 µM and the half-inhibitory concentration (IC50) was determined as 138 µM. Take `CCN(CC)CCCNc1nc2ccccc2c2c1ncn2CC(C)C`: the EC50 was over 200 µM and the IC50 was found to be 41.7 µM.
